# Source: ChEMBL document CHEMBL5543137, “Design and Synthesis of Novel Ultralong-Acting Peptides as EDP-EBP Interaction Inhibitors for Pulmonary Fibrosis Treatment” (J Med Chem, 2024)
# Activity calls are given as the source filed them. The calls are words filed in the database; no cut-off is given here. Starred links: 1 amine or outer side, 2 acyl side, 3 side chain; linkers in the order of their positions; H or OH if unused. Non-standard residues stand in square brackets, D forms with d. Residues, ends and D or L forms follow the SMILES beside them. *: point of attachment. C20 diacid = O=C(O)CCCCCCCCCCCCCCCCCCC(=O)*; γGlu = O=C(O)[C@H](CCC(=O)[*:2])N[*:1]; Iva = CC[C@](C)(N)C(=O)O; PEG2 = NCCOCCOCCC(=O)O
# How the values were obtained:
# [1] = Tmax in Sprague-Dawley rat serum at 0.04 mg/kg, sc administered as single dose measured upto 10 days by LC-MS/MS method; format: ADME, organism-based; conditions: time < 10 day
# A549 [2] = assay: Antifibrotic activity against TNFalpha-induced human A549 cells assessed as downregulation of Fn expression level at 10 uM incubated for 24 hrs by Western blotting analysis; format: functional, cell-based
# A549 [3] = assay: Inhibition of EBP signaling pathway in TGFalpha induced human A549 cells assessed as reduction in ERK phosphorylation at 10 uM incubated for 24 hrs by Western blotting analysis; format: cell-based
# A549 [4] = assay: Inhibition of EBP signaling pathway in TGFalpha induced human A549 cells assessed as reduction in AKT phosphorylation at 10 uM incubated for 24 hrs by Western blotting analysis; format: cell-based
# TC-1 [5] = assay: Inhibition of EBP signaling pathway in TGFalpha induced mouse TC-1 cells assessed as reduction in ERK phosphorylation at 10 uM incubated for 24 hrs by Western blotting analysis; format: cell-based
# TC-1 [6] = assay: Inhibition of EBP signaling pathway in TGFalpha induced mouse TC-1 cells assessed as reduction in PI3K phosphorylation at 10 uM incubated for 24 hrs by Western blotting analysis; format: cell-based
# TC-1 [7] = assay: Inhibition of EBP signaling pathway in TGFalpha induced mouse TC-1 cells assessed as reduction in AKT phosphorylation at 10 uM incubated for 24 hrs by Western blotting analysis; format: cell-based
# Mus musculus [8] = assay: Antifibrotic activity against BLM-induced C57BL/6 mouse pulmonary fibrosis model assessed as reduction in mortality at 150 ug/kg, sc administered for 2 weeks starting from 7 days post BLM induction and measured after 21 days post BLM induction; format: functional, organism-based; conditions: dose 150.0 µg/kg
# Mus musculus [9] = assay: Antifibrotic activity against BLM-induced C57BL/6 mouse pulmonary fibrosis model assessed as downregulation of Acta2 gene expression in lung tissue at 150 ug/kg, sc administered for 2 weeks starting from 7 days post BLM induction and measured after 21 days post BLM induction by RT-qPCR assay; format: functional, organism-based; conditions: dose 150.0 µg/kg
# Mus musculus [10] = assay: Antifibrotic activity against BLM-induced C57BL/6 mouse pulmonary fibrosis model assessed as downregulation of Fn gene expression in lung tissue at 150 ug/kg, sc administered for 2 weeks starting from 7 days post BLM induction and measured after 21 days post BLM induction by RT-qPCR assay; format: functional, organism-based; conditions: dose 150.0 µg/kg
# Mus musculus [11] = assay: Antifibrotic activity against BLM-induced C57BL/6 mouse pulmonary fibrosis model assessed as downregulation of Mmp-9 gene expression in lung tissue at 150 ug/kg, sc administered for 2 weeks starting from 7 days post BLM induction and measured after 21 days post BLM induction by RT-qPCR assay; format: functional, organism-based; conditions: dose 150.0 µg/kg
# Mus musculus [12] = assay: Antifibrotic activity against BLM-induced C57BL/6 mouse pulmonary fibrosis model assessed as downregulation of Timp1 gene expression in lung tissue at 150 ug/kg, sc administered for 2 weeks starting from 7 days post BLM induction and measured after 21 days post BLM induction by RT-qPCR assay; format: functional, organism-based; conditions: dose 150.0 µg/kg
# Mus musculus [13] = assay: Antifibrotic activity against BLM-induced sc dosed C57BL/6 mouse pulmonary fibrosis model assessed as reversal of lung indices administered for 2 weeks starting from 7 days post BLM induction and measured after 21 days post BLM induction; format: functional, organism-based; conditions: dose 30-240 µg/kg
# Mus musculus [14] = assay: Antifibrotic activity against BLM-induced C57BL/6 mouse pulmonary fibrosis model assessed as reduction in Fn gene expression at 240 ug/kg/day, sc administered for 2 weeks starting from 7 days post BLM induction and measured after 21 days post BLM induction by ScRNA-sequencing analysis; format: functional, organism-based; conditions: dose 240.0 µg/kg/day
# Mus musculus [15] = assay: Antifibrotic activity against BLM-induced C57BL/6 mouse pulmonary fibrosis model assessed as reduction in Cthrc1 gene expression at 240 ug/kg/day, sc administered for 2 weeks starting from 7 days post BLM induction and measured after 21 days post BLM induction by ScRNA-sequencing analysis; format: functional, organism-based; conditions: dose 240.0 µg/kg/day
# Mus musculus [16] = assay: Antifibrotic activity against BLM-induced C57BL/6 mouse pulmonary fibrosis model assessed as reduction in Acta2 gene expression at 240 ug/kg/day, sc administered for 2 weeks starting from 7 days post BLM induction and measured after 21 days post BLM induction by ScRNA-sequencing analysis; format: functional, organism-based; conditions: dose 240.0 µg/kg/day
# Mus musculus [17] = assay: Antifibrotic activity against BLM-induced C57BL/6 mouse pulmonary fibrosis model assessed as reduction in Tpm2 gene expression at 240 ug/kg/day, sc administered for 2 weeks starting from 7 days post BLM induction and measured after 21 days post BLM induction by ScRNA-sequencing analysis; format: functional, organism-based; conditions: dose 240.0 µg/kg/day
# Mus musculus [18] = assay: Antifibrotic activity against BLM-induced C57BL/6 mouse pulmonary fibrosis model assessed as reduction in Eln gene expression at 240 ug/kg/day, sc administered for 2 weeks starting from 7 days post BLM induction and measured after 21 days post BLM induction by ScRNA-sequencing analysis; format: functional, organism-based; conditions: dose 240.0 µg/kg/day
# Mus musculus [19] = assay: Antifibrotic activity against BLM-induced C57BL/6 mouse pulmonary fibrosis model assessed as reduction in Col5a1 gene expression at 240 ug/kg/day, sc administered for 2 weeks starting from 7 days post BLM induction and measured after 21 days post BLM induction by ScRNA-sequencing analysis; format: functional, organism-based; conditions: dose 240.0 µg/kg/day
# Mus musculus [20] = assay: Antifibrotic activity against BLM-induced C57BL/6 mouse pulmonary fibrosis model assessed as increase in ECM degradation at 240 ug/kg/day, sc administered for 2 weeks starting from 7 days post BLM induction and measured after 21 days post BLM induction by gene enrichment analysis; format: functional, organism-based; conditions: dose 240.0 µg/kg/day
# RAW264.7 [21] = assay: Induction of cell migration in mouse RAW264.7 cells at 10 uM by DAPI staining based assay; format: functional
# A549 [22] = assay: Antifibrotic activity against BLM-induced human A549 cells assessed as reduction in FN expression at 10 uM after 24 hrs by Western blotting analysis; format: functional, cell-based
# TC-1 [23] = assay: Antifibrotic activity against BLM-induced mouse TC-1 cells assessed as reduction in MMP-12 expression at 10 uM after 24 hrs by Western blotting analysis; format: functional, cell-based
# RAW264.7 [24] = assay: Antifibrotic activity against BLM-induced mouse RAW264.7 cells assessed as downregulation in TIMP-1 expression at 10 uM after 24 hrs by Western blotting analysis; format: functional, cell-based
# Mus musculus [25] = assay: Antifibrotic activity against BLM-induced C57BL/6 mouse pulmonary fibrosis model assessed as reduction in Vimentin expression at 240 ug/kg/day, sc administered for 2 weeks starting from 7 days post BLM induction and measured after 21 days post BLM induction in presence of Clo-Lip; format: functional, organism-based; conditions: dose 240.0 µg/kg/day
# Mus musculus [26] = assay: Antifibrotic activity against BLM-induced C57BL/6 mouse pulmonary fibrosis model assessed as reduction in alpha-SMA expression at 240 ug/kg/day, sc administered for 2 weeks starting from 7 days post BLM induction and measured after 21 days post BLM induction in presence of Clo-Lip; format: functional, organism-based; conditions: dose 240.0 µg/kg/day
# Mus musculus [27] = assay: Antifibrotic activity against BLM-induced C57BL/6 mouse pulmonary fibrosis model assessed as reduction in TIMP-1 expression at 240 ug/kg/day, sc administered for 2 weeks starting from 7 days post BLM induction and measured after 21 days post BLM induction in presence of Clo-Lip; format: functional, organism-based; conditions: dose 240.0 µg/kg/day
# Mus musculus [28] = assay: Antifibrotic activity against BLM-induced C57BL/6 mouse pulmonary fibrosis model assessed as reduction in Vimentin expression at 240 ug/kg/day, sc administered for 2 weeks starting from 7 days post BLM induction and measured after 21 days post BLM induction in presence of GM6001; format: functional, organism-based; conditions: dose 240.0 µg/kg/day
compound,measurement,setting,value
CC[C@](C)(NC(=O)[C@@H](NC(=O)CCOCCOCCNC(=O)CCOCCOCCNC(=O)CC[C@H](NC(=O)CCCCCCCCCCCCCCCCCCC(=O)O)C(=O)O)C(C)C)C(=O)NCC(=O)N[C@@H](CO)C(=O)N1CCC[C@H]1C(=O)N[C@@H](CO)C(=O)N[C@@H](C)C(=O)N[C@@H](CCC(N)=O)C(=O)N[C@@H](CCC(=O)O)C(=O)N[C@@H](CCC(=O)O)C(=O)N[C@@H](C)C(=O)N[C@@H](CO)C(=O)N1CCC[C@H]1C(=O)N[C@@H](C)C(N)=O ({C20 diacid-γGlu-PEG2-PEG2}-V[Iva]GSPSAQEEASPA-NH2),Tmax,[1],24 h
same,Activity,A549 [2],Active
same,inhibition,A549 [3],Active
same,inhibition,A549 [4],Active
same,inhibition,TC-1 [5],Active
same,inhibition,TC-1 [6],Active
same,inhibition,TC-1 [7],Active
same,Activity,Mus musculus [8],Active
same,Activity,Mus musculus [9],Active
same,Activity,Mus musculus [10],Active
same,Activity,Mus musculus [11],Active
same,Activity,Mus musculus [12],Active
same,Activity,Mus musculus [13],Dose-Dependent Effect
same,Activity,Mus musculus [14],Active
same,Activity,Mus musculus [15],Active
same,Activity,Mus musculus [16],Active
same,Activity,Mus musculus [17],Active
same,Activity,Mus musculus [18],Active
same,Activity,Mus musculus [19],Active
same,Activity,Mus musculus [20],Active
same,Activity,RAW264.7 [21],Active
same,Activity,A549 [22],Active
same,Activity,TC-1 [23],inactive
same,Activity,RAW264.7 [24],Active
same,Activity,Mus musculus [25],inactive
same,Activity,Mus musculus [26],inactive
same,Activity,Mus musculus [27],inactive
same,Activity,Mus musculus [28],inactive
